Experimental findings from publication PMC6458995, “MAP4K4 Inhibition Promotes Survival of Human Stem Cell-Derived Cardiomyocytes and Reduces Infarct Size In Vivo” (Cell Stem Cell, 2019) are described below.

One assay deals with T1, recombinant human MAP4K4 (Homo sapiens, UniProt O95819).
T1 construct: Human MAP4K4 kinase domain (aa 1-328); purchased Invitrogen PV3687
Description: In vitro MAP4K4 kinase activity assay (HTRF Transcreener ADP). The format is biochemical. To be noted: MAP4K4; HTRF Transcreener ADP assay; read-out: pIC50 (converted). The protocol:
MAP4K4 kinase activity was monitored using the CisBio HTRF Transcreener ADP assay, a competitive immunoassay with a reproducible Z’ > 0.6. In the detection step, endogenous ADP and d2-labeled ADP compete for binding an anti-ADP monoclonal antibody labeled with Eu^3+ cryptate. […] Assays were run in Greiner low volume plates with a final reaction volume of 10 μl. Percent inhibition was calculated from 100% activity of MAP4K4 (DMSO only) and 0% activity (no enzyme added). Data were either reported as % inhibition at a single dose or as pIC50 values derived from dose response curves (pIC50 = -log[IC50]).
On the technique in general: In TR-FRET formats the signal depends on donor and acceptor labels being close together.

Another assay relates to vCor.4U hiPSC-CMs. Description: Calcium transients (FLIPR Tetra, EarlyTox Cardiotoxicity dye). The format is cell-based, human. To be noted: Homo sapiens; calcium cycling; vCor.4U; 24 h; read-out: half-maximal loss of peak area and peak height. As for the experimental part: Calcium transients in hiPSC-CMs were assessed using FLIPR Tetra instrumentation and Early Tox Cardiotoxicity kits (Molecular Devices). vCor.4U cells were subjected to graded concentrations of menadione and the MAP4K4 inhibitors as described for the viability assays. Compound concentrations and time course are denoted in the figure and figure legend. Vehicle controls were used throughout. Cells were incubated for 2-3 hr at 37°C in 5% CO2, using 3 μL well^-1 of EarlyTox Cardiotoxicity Kit concentrate as the fluorescent calcium indicator dye. Plates were then removed from the incubator and allowed to reach room temperature. Intracellular calcium oscillations were monitored using a FLIPR Tetra system with excitation LED bank 470-495 nm and emission filter set 515-575 nm (Molecular Devices). Fluorescence intensity signals were acquired for 600 reads at 1.2 ms intervals. Beat frequency, median peak height, median peak width and total peak area were calculated and compared with the baseline control and with menadione alone. Protection of calcium cycling by DMX-4804 was confirmed in 3 independent experiments with overlapping conditions, and results are shown for a full dose-response study, analyzing 4 wells for each point.

The next assay relates to vCor.4U cells. Description: Mitochondrial function (Seahorse XFe24, OCR and ECAR). It is filed as cell-based, human. To be noted: menadione 15 μM; 2 h. As for the experimental part:
Mitochondrial function in hiPSC-CMs was determined using a Seahorse XFe24 Analyzer. vCor.4U cells (60,000 well^-1) were transferred to 0.1% gelatin-coated XF24 plates and maintained for 5 d, as described above. On day 6, DMX-5804 was added 45 min prior to challenge with menadione for 2 h. The medium was replaced 1 hr before the assay, using bicarbonate-free Seahorse assay medium (8.3 g L^-1 DMEM Base (Sigma-Aldrich), 10 mM glucose, 2 mM L-alanyl-L-glutamine dipeptide (Glutamax-1, GIBCO), 1 mM sodium pyruvate (GIBCO), pH 7.4). Cells were maintained at 37°C without supplemental CO2 starting 1 hr before the assay (IL10 incubator, VWR). For each state measured, three assay cycles were performed (4 min mixing, 2 min wait, and 2 min measurement periods, with readings every 15 s). The basal oxygen consumption rate (OCR) and extracellular acidification rate (ECAR) were determined, followed by sequential injection of 1 μM oligomycin A (Abcam) to inhibit ATP synthase, 0.5 μM […] (FCCP; Abcam) to uncouple oxidative phosphorylation, and 1 μM antimycin A/rotenone (Sigma, Abcam) to inhibit mitochondrial complex III and I. For each condition, 12 wells were tested, comprising 4 independent experiments.

In the next assay the test system is vCor.4U cardiomyocytes. Description: CellTiter-Glo viability after oxidative stress (H2O2 or menadione). It is filed as cell-based, human. To be noted: vCor.4U; 400 μM H2O2 1 h after compound; 10 μM. As for the experimental part: vCor.4U cardiomyocytes were cultured, except where noted, on white (viability) or black (FLIPR) clear-bottom 384-well plates, treated for 1 hr with […] fibronectin (Sigma-Aldrich). To minimize batch to batch variation, thawed cells first were transferred from cryo-vials into sterile 250 mL flasks containing pre-warmed vCor.4U maintenance medium, for 3-5 d. The cells were then plated at 1000 well^-1 for viability assays or 5000 cells well^-1 for FLIPR experiments, all in 40 μl well^-1 of the maintenance medium. Cells were cultured in Axiogenesis complete medium followed by incomplete medium, were subjected to oxidative stress ± test compounds on day 3, and were assayed on day 4 (Figures 4D and 4E). Alternatively, complete medium was replaced on day 2 of culture with 40 μl of DMEM high Glucose (no FCS or pyruvate), followed by removal and replacement of 20 μl every 2 d for 10 d (Figures 4A–4C).
H2O2, menadione (Sigma-Aldrich), doxorubicin (Calbiochem), and C2-ceramide (N-acetyl-D-sphingosine) were used at the indicated concentrations. MAP4K4 inhibitors were serially diluted in DMSO, transferred to an intermediate plate using assay medium as a diluting agent, and added at a final concentration of 0.1% DMSO. MAP4K4 inhibitors were added to cultured cardiomyocytes 1 hr before the cell death inducers, except where noted, and remained present for the duration of the experiment.
For cell-based dose-response experiments, MAP4K4 inhibitors were prepared in 96-well polypropylene plates as serial dilutions in DMSO of 10 mM stock solutions. To a sterile 96-well intermediate plate, 1 μl of each well was added to 99 μl of medium, the samples were mixed, and 5 μl well^-1 from the intermediate plate were transferred to the cultured cells (final concentration, 0.1% DMSO; final top concentration of inhibitor, 10 μM). Assay plates were gently centrifuged then incubated for 1 hr at 37°C. The death triggers menadione, H2O2 and doxorubicin were prepared fresh on the day of treatment at 10x the final concentrations and 5 μl well^-1 were added as appropriate. Assay plates were gently centrifuged and then incubated at 37°C for the duration of treatment.
Assay plates were removed from the incubator, allowed to reach room temperature, inoculated with 20 μl well^-1 CTG reagent (Promega), and gently agitated for 30 min. Prior to adding CTG, 2 μl well^-1 of the culture medium was removed and placed into a white 384-well low volume plate for measurement of cardiac troponin release by AlphaLISA (below). Luminescence due to ATP, proportional to cell number, was captured on a PHERAstar Plus microplate reader (BMG Labtech). Normalized values were plotted against the log concentration of death signal or inhibitor, and a 4-parameter fit was used to identify IC50 and EC50, respectively.
(Cellular ATP, detected with luciferase, serves as a proxy for viable cell number.)

T1 sequence (O95819 1-328): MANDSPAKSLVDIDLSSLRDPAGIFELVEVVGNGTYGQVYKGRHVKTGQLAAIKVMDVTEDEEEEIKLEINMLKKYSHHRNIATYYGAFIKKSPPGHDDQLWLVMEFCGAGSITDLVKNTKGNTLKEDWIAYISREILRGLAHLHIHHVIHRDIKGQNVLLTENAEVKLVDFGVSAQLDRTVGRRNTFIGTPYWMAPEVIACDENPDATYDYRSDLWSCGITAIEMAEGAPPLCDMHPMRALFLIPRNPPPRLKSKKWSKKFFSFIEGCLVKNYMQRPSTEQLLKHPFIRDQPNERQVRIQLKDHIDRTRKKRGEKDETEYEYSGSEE

For the molecule `O=c1[nH]cnc2c1ccn2-c1ccccc1` [DMX-4815], the IC50 on recombinant human MAP4K4 is 7.94 µM. On the same count and under the same terms, to `O=c1[nH]cnc2[nH]cc(-c3ccccc3)c12` [DMX-4850] belongs 0.794 µM. For the molecule `CC1=CC(=O)c2ccccc2C1=O` [menadione], the IC50 in the assay on vCor.4U hiPSC-CMs was determined as 16 µM. Further, the “Maximum oxidative capacity, of control levels” value with vCor.4U cells worked out at 15%.

For the molecule `COCCc1ccc(OCC(O)CNC(C)C)cc1` (centres unmarked) [metoprolol], in the assay with vCor.4U cardiomyocytes, the “human cardiomyocyte survival (rescue of viability)” value was “promoted”.
